Experimental data published in patent publication US5302399A, “Slow-releasing pharmaceuticals prepared with alginic acid” (Snow Brand Milk Products Co., Ltd., priority 1988, dated 1994).

Assays:
clinical = test: clinical; set-up: species or system healthy human adults; settings: in vivo, po
in vivo = test: in vivo; set-up: species or system Male beagle dogs; settings: dog, po
Text: Water was given ad libitum.
Water was given ad libitum during the test period.
In this test, alginic acid gel beads prepared using the low viscosity alginic acid gel beads (IL2, Kimizu Chemicals) were used.

Structure (SMILES): CC(C)NCC(O)COc1cccc2[nH]ccc12 (stereo not shown) [Pindolol powder, pindolol]
- MRT (clinical; human): 3.82 ± 0.32 h
- Tmax (clinical; human): ~1 h
- VRT (clinical): 7.44 ± 0.54 h^2
- AUC at 6 h (in vivo; 2.5 mg/kg): 238 ng·h/mL
- MRT at 6 h (in vivo; 2.5 mg/kg): 1.74 h
- AUC at 12 h (in vivo; 5 mg/kg): 311 ng·h/mL
- MRT at 12 h (in vivo; 5 mg/kg): 1.98 h
